For 13 compounds, IC50 and inhibition results are on record in patent US11673889B2, “Substituted imidazo[4,5-c][1,8]naphthyridines as phosphodiesterase inhibitors” (Nanjing Zhengxiang Pharmaceuticals Co., Ltd., priority 2019, dated 2023).

The structures appear in SMILES notation.

One experiment has as its target T1, ENPP-1, MDA-MB-231 cells (Homo sapiens, UniProt P22413).
T1 sequence (P22413 1-925): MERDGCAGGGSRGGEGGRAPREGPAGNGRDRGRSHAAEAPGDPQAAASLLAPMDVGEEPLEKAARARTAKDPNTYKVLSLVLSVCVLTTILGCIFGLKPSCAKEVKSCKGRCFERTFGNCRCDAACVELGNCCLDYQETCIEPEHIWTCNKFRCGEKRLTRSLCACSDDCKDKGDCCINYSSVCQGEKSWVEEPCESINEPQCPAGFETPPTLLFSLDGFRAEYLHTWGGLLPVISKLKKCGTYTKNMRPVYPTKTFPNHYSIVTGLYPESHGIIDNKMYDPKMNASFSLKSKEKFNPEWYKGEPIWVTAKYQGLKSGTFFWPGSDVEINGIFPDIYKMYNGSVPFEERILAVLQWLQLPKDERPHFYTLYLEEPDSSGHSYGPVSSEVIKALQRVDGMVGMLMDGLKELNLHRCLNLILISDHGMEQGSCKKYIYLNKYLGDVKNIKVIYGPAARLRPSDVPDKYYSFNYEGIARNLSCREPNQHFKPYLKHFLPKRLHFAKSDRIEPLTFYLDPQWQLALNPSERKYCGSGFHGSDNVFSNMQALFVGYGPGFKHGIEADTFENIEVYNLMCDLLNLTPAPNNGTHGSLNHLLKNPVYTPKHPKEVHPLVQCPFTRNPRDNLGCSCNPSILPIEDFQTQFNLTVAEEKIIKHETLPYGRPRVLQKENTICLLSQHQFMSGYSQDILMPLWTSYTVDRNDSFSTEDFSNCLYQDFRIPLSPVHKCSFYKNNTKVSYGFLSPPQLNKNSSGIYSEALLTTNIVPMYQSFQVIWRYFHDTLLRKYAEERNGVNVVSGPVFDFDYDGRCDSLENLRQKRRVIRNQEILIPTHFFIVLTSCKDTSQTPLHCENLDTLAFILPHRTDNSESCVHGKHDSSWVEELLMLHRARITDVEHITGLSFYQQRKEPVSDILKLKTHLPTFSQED
The experiment can be described thus: cell-based. The note with it: for inhibition at 20 µM: MDA-MB-231, read-out: % Inhibition (at 20 μM). Here is the method:
ENPP-1 were mainly expressed on the surface of cell membrane where it hydrolytes 2′3′-cGAMP to generate 5′-GMP and 5′-AMP. ENPP-1 also has the ability to hydrolyzes artificial phosphoric acid ester TMP-pNP to nucleotide-5′-monophosphate and p-nitrophcnol there, which is a chromogenic product.
8 point of different concentrations of each inhibitor were prepared with the final assay concentrations starting at 20 μM. 3× series dilution by DMEM medium without FBS was applied. Prior to adding inhibitors, 75000 cells per well were incubated at 37° C., 5% CO2 in DMEM for 24 hours. After removing the supernatant medium, 50 μL inhibitor solution was added into each well with cultured cells and incubate at 37° C., 5% CO2 for 60 minutes.
(§1) The IC50 values for percent inhibition versus compound concentration are determined by fitting the inhibition curves using a four-parameter variable slope model in GraphPad Prism® 8.

Experiment [1] has as its target T2, human soluble ENPP1 (Homo sapiens, UniProt P22413).
T2 construct: 20 ng of human soluble ENPP1
T2 sequence (P22413 103-925 limits assumed): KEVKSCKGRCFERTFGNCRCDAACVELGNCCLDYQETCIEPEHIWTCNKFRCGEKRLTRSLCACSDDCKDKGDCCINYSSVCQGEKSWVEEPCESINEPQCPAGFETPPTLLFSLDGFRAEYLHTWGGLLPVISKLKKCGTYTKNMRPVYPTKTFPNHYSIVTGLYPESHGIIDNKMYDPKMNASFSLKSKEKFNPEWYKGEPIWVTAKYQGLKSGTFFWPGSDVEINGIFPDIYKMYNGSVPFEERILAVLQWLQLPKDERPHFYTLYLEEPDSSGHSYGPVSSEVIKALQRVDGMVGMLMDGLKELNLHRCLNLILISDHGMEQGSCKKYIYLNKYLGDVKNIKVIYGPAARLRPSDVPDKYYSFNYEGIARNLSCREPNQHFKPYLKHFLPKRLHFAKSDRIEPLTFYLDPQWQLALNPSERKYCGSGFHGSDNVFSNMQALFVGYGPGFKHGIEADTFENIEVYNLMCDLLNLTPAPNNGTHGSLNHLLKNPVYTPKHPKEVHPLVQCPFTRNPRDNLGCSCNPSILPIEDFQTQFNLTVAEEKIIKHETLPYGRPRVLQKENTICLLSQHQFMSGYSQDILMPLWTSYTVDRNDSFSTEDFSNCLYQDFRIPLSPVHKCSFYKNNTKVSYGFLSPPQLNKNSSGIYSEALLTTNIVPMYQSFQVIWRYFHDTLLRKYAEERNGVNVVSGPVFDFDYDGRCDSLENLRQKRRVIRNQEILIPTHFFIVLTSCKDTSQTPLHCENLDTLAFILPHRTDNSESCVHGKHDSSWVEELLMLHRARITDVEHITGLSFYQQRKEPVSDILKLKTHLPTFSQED
Nature of the experiment: ENPP1 activity assay using p-Nitrophenyl-5′-AMP as a substrate. The format is biochemical. As to the method:
AMP-pNP can be used as substrate of ENPP-1. Its hydrolysis products were nucleotide-5′-monophosphate and p-nitrophcnol, which is also a chromogenic product. The amount of p-nitrophenol product formed is measured using its absorbance at 405 nm, which is directly proportional to enzyme activity.
Load into a well with […] of human soluble ENPP1 in 50 μL and incubate at room temperature with 25 μL inhibitor solution (4× Final Concentration) for 30 mins prior adding 25 μL 3 mM AMP solution (2× Final Concentration) into the well, Incubate at RT for 1 hour. The amounts of released p-nitrophenolate were measured by reading OD value at 405 nm.
(§2) The percent inhibition at each compound is calculated as follows: % inhibition=(ODMAX−ODCOMPOUND)/(ODMAX−ODMIN)*100. (MAX: absence of ENPP1 inhibitors control, MIN: blank control.)
as §1

The target of experiment [2] is T2, human soluble ENPP1. The experiment can be described thus: ENPP1 activity assay using p-Nitrophenyl-5′-TMP as a substrate. The format is biochemical. Here is the method: ENPP1 is a transmembrane glycoprotein that hydrolyzes nucleotides and nucleotide derivatives with the formation of nucleotide-5′-monophosphates. ENPP1 hydrolyzes artificial phosphoric acid ester thymidine 5′monophosphate p-nitrophenyl ester (TMP-pNP) to nucleotide-5′-monophosphate and p-nitrophenol, which is a chromogenic product.
Load into a well with 20 ng of human soluble ENPP1 in 50 μL and incubate at room temperature with 25 μL inhibitor solution (4× Final Concentration) for 30 mins. Then, add 25 μL 2 mM TMP solution (2× Final Concentration) into the well, Incubate at RT for 1 hour.
as §2
The IC50 values for percent inhibition versus compound concentration were determined by fitting the inhibition curves using a four-parameter variable slope model in GraphPad Prism® 8.

[3] abbreviates: substrate TMP-pNP, 20 ng human soluble ENPP1, Tris buffer pH 9.5, read-out: TMP-pNP (IC50).

As to `COc1ccc2c(ncc3nc(C4CNC4)n(Cc4ccc(S(N)(=O)=O)c(F)c4)c32)n1` [Compound 85, 4-((2-(azetidin-3-yl)-7-methoxy-1H-imidazo[4,5-c][1,8]naphthyridin-1-yl)methyl)-2-fluorobenzenesulfonamide], the IC50 against ENPP-1, MDA-MB-231 cells came to 900 nM; at human soluble ENPP1 [1], 5.2 nM; against human soluble ENPP1 [2], 2 nM. In addition, the inhibition at 20 µM on ENPP-1, MDA-MB-231 cells is 79%.

For `COc1ccc2c(ncc3nc(C4CN(S(C)(=O)=O)C4)n(Cc4ccc(S(N)(=O)=O)c(F)c4)c32)n1` [Compound 86, 2-fluoro-4-((7-methoxy-2-(1-(methylsulfonyl)azetidin-3-yl)-1H-imidazo[4,5-c][1,8]naphthyridin-1-yl)methyl)benzenesulfonamide], the IC50 against ENPP-1, MDA-MB-231 cells was 620 nM; on human soluble ENPP1 [1] it was 3.2 nM; at human soluble ENPP1 [2], 0.81 nM. In addition, the inhibition at 20 µM on ENPP-1, MDA-MB-231 cells is 80%.

On to `COc1ccc2c(n1)nc(C)c1ncn(Cc3ccc(S(N)(=O)=O)cn3)c12` [Compound 87, 6-((7-methoxy-4-methyl-1H-imidazo[4,5-c][1,8]naphthyridin-1-yl)methyl)pyridine-3-sulfonamide], for which the IC50 at ENPP-1, MDA-MB-231 cells is 360 nM; against human soluble ENPP1 [1], 4 nM; against human soluble ENPP1 [2], 1.3 nM. Besides, the inhibition at 20 µM on ENPP-1, MDA-MB-231 cells is 85%.

For the compound `COc1ccc2c(n1)nc(C)c1ncn(Cc3ccc(S(N)(=O)=O)c(F)c3)c12` [Compound 88, 2-fluoro-4-((7-methoxy-4-methyl-1H-imidazo[4,5-c][1,8]naphthyridin-1-yl)methyl)benzenesulfonamide], the IC50 came to 2200 nM at ENPP-1, MDA-MB-231 cells; 12 nM at human soluble ENPP1 [1]; 4 nM on human soluble ENPP1 [2]. The inhibition at 20 µM on ENPP-1, MDA-MB-231 cells is 81%.

For the compound `COc1ccc2c(n1)nc(C)c1nc(C)n(Cc3cc(F)c(S(N)(=O)=O)cc3F)c12` [Compound 90, 2,5-difluoro-4-((7-methoxy-2,4-dimethyl-1H-imidazo[4,5-c][1,8]naphthyridin-1-yl)methyl)benzenesulfonamide], the IC50 against ENPP-1, MDA-MB-231 cells turned out to be 980 nM; at human soluble ENPP1 [1] it was 7.7 nM; at human soluble ENPP1 [2] it was 2.4 nM. The inhibition at 20 µM on ENPP-1, MDA-MB-231 cells worked out at 74%.

In the case of `COc1ccc2c(n1)nc(C)c1nc(C)n(Cc3ncc(S(N)(=O)=O)cn3)c12` [Compound 91a, 2-((7-methoxy-2,4-dimethyl-1H-imidazo[4,5-c][1,8]naphthyridin-1-yl)methyl)pyrimidine-5-sulfonamide], the IC50 at ENPP-1, MDA-MB-231 cells is above 6700 nM; on human soluble ENPP1 [1], 323 nM; at human soluble ENPP1 [2] (setting [3]), 83 nM. The inhibition at 20 µM at ENPP-1, MDA-MB-231 cells was 53%.

Take `COc1ccc2c(n1)nc(C)c1nc(CN(C)C)n(Cc3cc(F)c(S(N)(=O)=O)cc3F)c12` [Compound 92, 4-((2-((dimethylamino)methyl)-7-methoxy-4-methyl-1H-imidazo[4,5-c][1,8]naphthyridin-1-yl)methyl)-2,5-difluorobenzenesulfonamide]: the IC50 turned out to be 4100 nM at ENPP-1, MDA-MB-231 cells; 29 nM on human soluble ENPP1 [1]; 9.3 nM at human soluble ENPP1 [2]. Further, the inhibition at 20 µM on ENPP-1, MDA-MB-231 cells came to 68%.

For `COCCc1nc2c(C)nc3nc(OC)ccc3c2n1Cc1cc(F)c(S(N)(=O)=O)cc1F` [Compound 93, 2,5-difluoro-4-((7-methoxy-2-(2-methoxyethyl)-4-methyl-1H-imidazo[4,5-c][1,8]naphthyridin-1-yl)methyl)benzenesulfonamide], the half-inhibitory concentration (IC50) came out at 2200 nM against ENPP-1, MDA-MB-231 cells; 13 nM at human soluble ENPP1 [1]; 3.7 nM on human soluble ENPP1 [2]. In addition, the inhibition at 20 µM at ENPP-1, MDA-MB-231 cells was determined as 74%.

Take `COc1ccc2c(n1)nc(C)c1nc(CO)n(Cc3cc(F)c(S(N)(=O)=O)cc3F)c12` [Compound 94, 2,5-difluoro-4-((2-(hydroxymethyl)-7-methoxy-4-methyl-1H-imidazo[4,5-c][1,8]naphthyridin-1-yl)methyl)benzenesulfonamide]: the IC50 came to 2700 nM on ENPP-1, MDA-MB-231 cells; 8.8 nM at human soluble ENPP1 [1]; 3.4 nM against human soluble ENPP1 [2]. In addition, the inhibition at 20 µM on ENPP-1, MDA-MB-231 cells is 74%.

Turning to `COc1ccc2c(ncc3[nH]c(=O)n(Cc4ccc(S(N)(=O)=O)c(F)c4F)c32)n1` [Compound 95, 2,3-difluoro-4-((7-methoxy-2-oxo-2,3-dihydro-1H-imidazo[4,5-c][1,8]naphthyridin-1-yl)methyl)benzenesulfonamide], the IC50 stood at 1400 nM against ENPP-1, MDA-MB-231 cells; 4.6 nM against human soluble ENPP1 [1]; 1.4 nM on human soluble ENPP1 [2] (setting [3]). The inhibition at 20 µM on ENPP-1, MDA-MB-231 cells is 75%.

Regarding `COc1ccc2c(ncc3[nH]c(=O)n(Cc4ccc(S(N)(=O)=O)nc4)c32)n1` [Compound 96, 5-((7-methoxy-2-oxo-2,3-dihydro-1H-imidazo[4,5-c][1,8]naphthyridin-1-yl)methyl)pyridine-2-sulfonamide], the IC50 at ENPP-1, MDA-MB-231 cells amounted to 11000 nM; against human soluble ENPP1 [1], 5.4 nM; on human soluble ENPP1 [2] (setting [3]) it was 1.7 nM. Moreover, the inhibition at 20 µM at ENPP-1, MDA-MB-231 cells is 57%.

For `COc1ccc2c(ncc3[nH]c(=O)n(CC4CC(OS(N)(=O)=O)C4)c32)n1` (stereo not shown) [Compound 97, 3-((7-methoxy-2-oxo-2,3-dihydro-1H-imidazo[4,5-c][1,8]naphthyridin-1-yl)methyl)cyclobutyl sulfamate], the IC50 was determined as 810 nM at ENPP-1, MDA-MB-231 cells; 1.1 nM against human soluble ENPP1 [1]; 0.56 nM on human soluble ENPP1 [2]. Moreover, at ENPP-1, MDA-MB-231 cells, the inhibition at 20 µM was 78%.

For `COc1ccc2c(ncc3[nH]c(=O)n(Cc4ccc(S(N)(=O)=O)c(F)c4)c32)n1` [Compound 98, 2-fluoro-4-((7-methoxy-2-oxo-2,3-dihydro-1H-imidazo[4,5-c][1,8]naphthyridin-1-yl)methyl)benzenesulfonamide], the IC50 against ENPP-1, MDA-MB-231 cells was 3800 nM; against human soluble ENPP1 [1], 3 nM; at human soluble ENPP1 [2] (setting [3]), 0.6 nM. Moreover, the inhibition at 20 µM on ENPP-1, MDA-MB-231 cells is 62%.

Broadly, the IC50 is the concentration at which inhibition is half-maximal. Usually inhibition stands for the change of the read-out against control, counted positive when it falls.
